The values that follow are results of earlier work, collected in publication PMC7686313, “Phase 1 study of mTORC1/2 inhibitor sapanisertib (TAK-228) in advanced solid tumours, with an expansion phase in renal, endometrial or bladder cancer” (British Journal of Cancer, 2020).

The subject of data set [1] is refractory clear-cell RCC. Set-up: method as in earlier work. To be noted: 10 mg QD; cited from earlier work.
Another data set deals with RCC. To be noted: patients with RCC; cited from earlier work.

Molecules are shown by their SMILES.

`CO[C@H]1C[C@@H]2CC[C@@H](C)[C@@](O)(O2)C(=O)C(=O)N2CCCC[C@H]2C(=O)O[C@H]([C@H](C)C[C@@H]2CC[C@@H](OCCO)[C@H](OC)C2)CC(=O)[C@H](C)/C=C(\C)[C@@H](O)[C@@H](OC)C(=O)[C@H](C)C[C@H](C)/C=C/C=C/C=C/1C` [everolimus, reference compound]: the ORR in data set [1] is 13%.
Consider `CO[C@H]1C[C@@H]2CC[C@@H](C)[C@@](O)(O2)C(=O)C(=O)N2CCCC[C@H]2C(=O)O[C@H]([C@H](C)C[C@@H]2CC[C@@H](OC(=O)C(C)(CO)CO)[C@H](OC)C2)CC(=O)[C@H](C)/C=C(\C)[C@@H](O)[C@@H](OC)C(=O)[C@H](C)C[C@H](C)/C=C/C=C/C=C/1C` [temsirolimus], for which the ORR with RCC is given as 8.6%.
